pIC50: −log10 of the molar value.
Target: T1, recombinant human mPGES-1 (Homo sapiens, UniProt O14684)
T1 construct: made in house; host or cells: Rosetta E. coli (membrane/microsome fraction)
T1 sequence (O14684 1-152): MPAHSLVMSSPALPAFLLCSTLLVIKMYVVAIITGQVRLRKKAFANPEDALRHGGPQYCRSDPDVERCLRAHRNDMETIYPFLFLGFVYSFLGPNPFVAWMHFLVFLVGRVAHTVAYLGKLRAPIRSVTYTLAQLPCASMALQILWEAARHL
Test: mPGES-1 HTRF assay (inhibition of PGE2 formation from PGH2)
Format: biochemical
Conditions: HTRF assay
Experimental: The basis of the assay used is to measure the inhibition of microsomal prostaglandin E2 synthase-1 (mPGES-1) dependent prostaglandin (PG) E2 formation from PGH2 by different compounds. Thus, the formation of PGE2 is used as signal and a lowering of this signal can be interpreted as inhibition of mPGES-1. […] Microsomes from Rosetta E. coli bacteria expressing recombinant human mPGES-1 can be derived as described below: Inoculate 5 ml LB with Amp and Chloro with bacteria from freeze culture. Incubate over night at 37° C. with 200 rpm. Thereafter, inoculate 500-800 ml LB containing Amp and Chloro with the 5 ml on culture and grow to OD640 of 0.6-0.8. Chill the culture to +4° C. before induction. Induce the culture with IPTG at a final concentration of 400 μM. Express the protein at room temp 18-23° C. with 200 rpm shaking over night. The following steps can be performed on the following day: • 1. Spin down the cells in 250 ml centrifuge flasks for 15 min at 7000 rpm • 2. Dissolve the pellet from 250 ml culture in 12.5 ml homogenization buffer • 3. Disintegrate the cells by sonication, 4×10 seconds at 35% amplitude • 4. Add 2.5 ml MgCl2 (100 mM) and DNase 12.5 μl (0.8 mg/ml) and incubate on ice for 30 min • 5. Spin down the bacteria debris and save the supernatant, 7000 rpm for 15 min • 6. Isolate the protein containing membranes in the supernatant by ultracentrifugation 45000×g for 1 hour. • 7. Discard the supernatant and dissolve the pellet in 20 mM KPi buffer and aliquot the enzyme and store aliquots at −80° C. Before each experiment is performed an aliquot of the enzyme is thawed and it can then be dissolved in 0.1 M KPi pH 7.4 buffer containing 2.5 mM GSH. 50 μl of this enzyme solution is subsequently dispensed in a 384-well plate at room temperature. 0.5 μl of the inhibitor dissolved in DMSO is thereafter added to each well and incubated for 25 minutes at room temperature. Subsequently, 2 μl of PGH2 dissolved in an appropriate solvent is added to each well and after one minute at room temperature, the acidified stop solution containing FeCl2 is added. 4 μl of the total volume is transferred to a separate plate and diluted 750-fold in two separate steps before quantification of PGE2. In order to quantitate the amount of PGE2 that has been formed, a homogenous time resolved fluorescent (HTRF) detection of PGE2 can be performed by the use of a commercially available kit from CisBio essentially according to the manufacturer's protocol. […] The sealing film is thereafter removed from the NC wells. • 5 μl Eu3+-cryptate labeled anti-PGE2 can now be added to rows 1 to 24 by using a Multidrop. • The plate can now be covered with sealing film. • The plate can now be centrifuge at 1200 rpm for 1 minute and place at 4° C. overnight. After the over night incubation the fluorescence is measured by the use of an appropriate microplate reader. […] The extent of the specific HTRF is measured as a ratio of the emission intensity at 665 nm vs. that at 620 nm. A standard curve using synthetic PGE2 is used to quantify the amount of PGE2 in unknown samples. The degree of inhibition can be calculated as percent inhibition by dividing the amount of PGE2 formed in unknown samples by the amount of PGE2 formed in control samples.

Point of comparison: Cn1c(Nc2cc(CNC(=O)C3(C(F)(F)F)CC3)ccc2F)nc2cc(C(=O)Nc3ccc(Br)cc3)c(OCC(F)F)cc21 [Example 66, N-(4-Bromo-phenyl)-2-(2-fluoro-5-{[(1-trifluoromethyl-cyclopropanecarbonyl)-amino]-methyl}-phenylamino)-6-(2,2-difluoro-ethoxy)-1-methyl-1H-benzimidazole-5-carboxylic acid amide], pIC50 8.52. Against it:
- Cn1c(Nc2cc(CNC(=O)C(C)(C)C)ccc2Cl)nc2cc(C(=O)Nc3ccc(Br)cc3)ccc21 [Example 57, N-(4-Bromophenyl)-2-{2-chloro-5-[(tert.butylcarbonylamino)methyl]-phenylamino}-1-methylbenzimidazole-5-carboxamide] — 0.48 log units higher, 9.00
- Cn1c(Nc2cc(CNC(=O)C3(C(F)(F)F)CC3)ccc2Cl)nc2cc(C(=O)Nc3ccc(Br)cc3)c(OCC(F)F)cc21 [Example 59, N-(4-Bromo-phenyl)-2-(2-chloro-5-{[(1-trifluoromethyl-cyclopropanecarbonyl)-amino]-methyl}-phenylamino)-6-(2,2-difluoro-ethoxy)-1-methyl-1H-benzimidazole-5-carboxylic acid amide] — within 0.2 log units, 8.70
- Cn1c(Nc2cc(CNC(=O)C3(C(F)(F)F)CC3)ccc2Cl)nc2cc(C(=O)NCC3CC3)c(OCC(F)F)cc21 [Example 60, N-(Cyclopropylmethyl)-2-(2-chloro-5-{[(1-trifluoromethyl-cyclopropanecarbonyl)-amino]-methyl}-phenylamino)-6-(2,2-difluoro-ethoxy)-1-methyl-1H-benzimidazole-5-carboxylic acid amide] — 0.48 log units higher, 9.00
- Cn1c(Nc2cc(CNC(=O)C3(C(F)(F)F)CC3)ccc2Cl)nc2cc(C(=O)NCCCC(F)(F)F)c(OCC(F)F)cc21 [Example 61, N-(4,4,4-Trifluorobutyl)-2-(2-chloro-5-{[(1-trifluoromethyl-cyclopropanecarbonyl)-amino]-methyl}-phenylamino)-6-(2,2-difluoro-ethoxy)-1-methyl-1H-benzimidazole-5-carboxylic acid amide] — 0.48 log units higher, 9.00
- Cn1c(Nc2cc(CNC(=O)C3(C(F)(F)F)CC3)ccc2Cl)nc2cc(C(=O)NC3CCC(F)(F)CC3)c(OCC(F)F)cc21 [Example 62, N-(4,4-Difluorocyclohexyl)-2-(2-chloro-5-{[(1-trifluoromethyl-cyclopropanecarbonyl)-amino]-methyl}-phenylamino)-6-(2,2-difluoro-ethoxy)-1-methyl-1H-benzimidazole-5-carboxylic acid amide] — 0.48 log units higher, 9.00
- COc1cc2c(cc1C(=O)Nc1ccc(Br)cc1)nc(Nc1cc(CNC(=O)C3(C(F)(F)F)CC3)ccc1Cl)n2C [Example 63, N-(4-Bromo-phenyl)-2-(2-chloro-5-{[(1-trifluoromethyl-cyclopropanecarbonyl)-amino]-methyl}-phenylamino)-6-methoxy-1-methyl-1H-benzimidazole-5-carboxylic acid amide] — within 0.2 log units, 8.70
- COc1cc2c(cc1C(=O)NCC1CC1)nc(Nc1cc(CNC(=O)C3(C(F)(F)F)CC3)ccc1Cl)n2C [Example 64, N-(Cyclopropylmethyl)-2-(2-chloro-5-{[(1-trifluoromethyl-cyclopropanecarbonyl)-amino]-methyl}-phenylamino)-6-methoxy-1-methyl-1H-benzimidazole-5-carboxylic acid amide] — within 0.2 log units, 8.70
- COc1cc2c(cc1C(N)=O)nc(Nc1cc(CNC(=O)C3(C(F)(F)F)CC3)ccc1Cl)n2C [Example 65, 2-(2-chloro-5-{[(1-trifluoromethyl-cyclopropanecarbonyl)-amino]-methyl}-phenylamino)-6-methoxy-1-methyl-1H-benzimidazole-5-carboxylic acid amide] — 2.00 log units lower, 6.52
- O=C(Nc1ccc(Br)cc1)c1cc2nc(Nc3cc(CNC(=O)C4(C(F)(F)F)CC4)ccc3Cl)[nH]c2cc1OCC(F)F [Example 67, N-(4-Bromo-phenyl)-2-(2-chloro-5-{[(1-trifluoromethyl-cyclopropanecarbonyl)-amino]-methyl}-phenylamino)-6-(2,2-difluoro-ethoxy)-1H-benzimidazole-5-carboxylic acid amide] — within 0.2 log units, 8.70
- O=C(NCC1CC1)c1cc2nc(Nc3cc(CNC(=O)C4(C(F)(F)F)CC4)ccc3Cl)[nH]c2cc1OCC(F)F [Example 68, N-(Cyclopropylmethyl)-2-(2-chloro-5-[{(l-trifluoromethyl-cyclopropanecarbonyl)-amino]-methyl}-phenylamino)-6-(2,2-difluoro-ethoxy)-1H-benzimidazole-5-carboxylic acid amide] — the same, 8.52
- COc1cc2[nH]c(Nc3cc(CNC(=O)C4(C(F)(F)F)CC4)ccc3Cl)nc2cc1C(=O)Nc1ccc(Br)cc1 [Example 69, N-(4-Bromo-phenyl)-2-(2-chloro-5-{[(1-trifluoromethyl-cyclopropanecarbonyl)-amino]-methyl}-phenylamino)-6-methoxy-1H-benzimidazole-5-carboxylic acid amide] — 0.48 log units higher, 9.00
- CN(C)CCn1c(Nc2cc(CNC(=O)C3(C(F)(F)F)CC3)ccc2Cl)nc2cc(C(=O)Nc3ccc(Br)cc3)ccc21 [Example 70, N-(4-Bromo-phenyl)-2-(2-chloro-5-{[(1-trifluoromethyl-cyclopropanecarbonyl)-amino]-methyl}-phenylamino)-1-(2-(dimethylamino)ethyl)-1H-benzimidazole-5-carboxylic acid amide] — the same, 8.52
- COCCn1c(Nc2cc(CNC(=O)C3(C(F)(F)F)CC3)ccc2Cl)nc2cc(C(=O)Nc3ccc(Br)cc3)ccc21 [Example 71, N-(4-Bromo-phenyl)-2-(2-chloro-5-{[(1-trifluoromethyl-cyclopropanecarbonyl)-amino]-methyl}-phenylamino)-1-(2-methoxyethyl)-1H-benzimidazole-5-carboxylic acid amide] — within 0.2 log units, 8.70

Same assay, conditions: compound concentration of 10 μM, HTRF assay; read-out: % inhibition

Point of comparison: Cn1c(Nc2cc(CNC(=O)C3(C(F)(F)F)CC3)ccc2Cl)nc2cc(C(=O)NCCCC(F)(F)F)ccc21 [Example 53, 2-{2-Chloro-5-[(1-trifluoromethylcyclopropylamido)methyl]phenylamino}-1-methyl-N-(4,4,4-trifluorobutyl)benzimidazole-5-carboxamide], inhibition at 10 µM 100%. Against it:
- Cn1c(Nc2cc(CNC(=O)C3(C)CCC(F)(F)CC3)ccc2Cl)nc2cc(C(=O)Nc3ccc(Br)cc3)ccc21 [Example 51, N-(4-Bromophenyl)-2-{2-chloro-5-[(4,4-difluoro-1-methylcyclohexyl-amido)methyl]phenylamino}-1-methylbenzimidazole-5-carboxamide] — lower, 94%
- Cn1c(Nc2cc(CNC(=O)C3(C(F)(F)F)CC3)ccc2Cl)nc2cc(C(=O)NCCOC(C)(C)C)ccc21 [Example 52, N-(2-tert-Butoxyethyl)-2-{2-chloro-5-[(1-trifluoromethylcyclopropyl-amido)methyl]phenylamino}-1-methylbenzimidazole-5-carboxamide] — lower, 96%
- Cn1c(Nc2cc(CNC(=O)C3(C(F)(F)F)CC3)ccc2Cl)nc2cc(C(=O)NC3CCC(F)(F)CC3)ccc21 [Example 54, 2-{2-chloro-5-[(1-trifluoromethylcyclopropylamido)methyl]phenylamino}-N-(4,4-difluorocyclohexyl)-1-methylbenzimidazole-5-carboxamide] — lower, 98%
- CN1CCCC1CCNC(=O)c1ccc2c(c1)nc(Nc1cc(CNC(=O)C3(C(F)(F)F)CC3)ccc1Cl)n2C (stereo not shown) [Example 55, 2-{2-chloro-5-[(1-trifluoromethylcyclopropylamido)methyl]phenylamino}-1-methyl-N-[2-(1-methyl-2-pyrrolidinyl)ethyl]benzimidazole-5-carboxamide] — lower, 68%
